Here are results for six molecules from patent US20100189772A1, “Compositions of TLR ligands and antivirals” (COLEY PHARMACEUTICAL GROUP, INC, priority 2006, published 2010).

Series [1] relates to Human PBMC. Kind of series: Cytokine induction by ORN in human PBMC (ELISA of supernatants). It is filed as cell-based. As to conditions: human PBMC (n=3); for IFN-alpha cytokine induction, 8-modified nucleotide at the ORN 5′ end: FIG. 3, compared to the unmodified ORN (SEQ ID NO:8 and 11); for IFN-alpha cytokine induction, effect of the position of 8-Oxo-rG: FIG. 2, versus control SEQ ID NO:8. On the procedure: (§1) Cell purification Peripheral blood buffy coat preparations from healthy human donors were obtained from the Blood Bank of the University of Düsseldorf (Germany) and PBMC were purified by centrifugation over Ficoll-Hypaque (Sigma). Cells were cultured in a humidified incubator at 37° C. in RPMI 1640 medium supplemented with 5% (v/v) heat inactivated human AB serum (BioWhittaker) or 10% (v/v) heat inactivated FCS, 2 mM L-glutamine, 100 U/ml penicillin and 100 μg/ml streptomycin (all from Sigma).
(§2) Cytokine detection PBMC were resuspended at a concentration of 5×10^6 cells/ml and added to 96 well round-bottomed plates (250 μl/well). PBMC were incubated with various ODN, ORN or nucleoside concentrations and culture supernatants (SN) were collected after the indicated time points. If not used immediately, SN were stored at −20° C. until required. For inhibitory experiments, cells were stimulated with the indicated TLR ligand concentration and nucleoside or ORN added. In some experiments, the second modified ORN was added 1 h after the start of the cell culture.
(§3) Amounts of cytokines in the SN were assessed using a commercially available ELISA Kit for IL-12p40 (from BD Biosciences, Heidelberg, Germany), IFN-γ and TNF-α (from Diaclone, Besancon, France) or an in-house ELISA for IFN-α developed using commercially available antibodies (PBL, New Brunswick, N.J., USA). For analysis of a broad set of cytokines and chemokines, multiplex analysis with a luminex system from Bio-Rad (Munich, Germany) and Multiplex kits from Biosource (Solingen, Germany) was performed.
Human PBMC (n=3) were stimulated with 8-Oxo-rG (a C-8 substituted guanosine) modified ORN (SEQ ID NO:1-4) and an unmodified ORN (SEQ ID NO:8). Supernatants were collected and cytokines IFN-alpha (FIG. 1a), IL-12p40 (FIG. 1b) and TNF-alpha (FIG. 1c) were measured.
Human PBMC (n=3) were stimulated with the indicated ORN with a single 8-Oxo-rG at different positions of the ORN (SEQ ID NO:1-4) and the […] negative control (SEQ ID NO:8). Supernatants were collected and IFN-alpha measured.
Human PBMC (n=3) were stimulated with the indicated ORN with a single 8-Oxo-rG/Dg (SEQ ID NO:1, 5), 8-Bromo-dG (SEQ ID NO:7) or Immunosine (Isatoribine) (SEQ ID NO:6) (with a 5′-5′ linkage) at the 5′ end of the ORN and IFN-alpha measured. […] Similar data were obtained for 8-Bromo-rG (data not shown). In addition, even the linkage of a 8-modified dA or rA (data not shown) results in an, although only slight increase of the cytokine induction.
(In general: In an ELISA, binding on a coated surface is turned into a signal by an enzyme label.)

Another series has as its system T cell IFN-γ production. Kind of series: In vivo treatment of mice with CpG ODN and/or RBV, ex vivo anti-CD3 induced IFN-gamma production of inguinal lymph node cells (ELISA). As to conditions: for T cell IFN-γ production ex-vivo after in vivo treatment with a single agent: SEQ ID NO. 14 100 micrograms SC or RBV 0.5 mg/kg IP alone, lymph node Day 6, ELISA Day 8, FIG. 4. The procedure:
(§4) We repeated the experiment with a lower dose of RBV in vivo (0.5 mg/kg IP).
(§5) Mice were injected with SEQ ID NO. 14 (100 micrograms SC), RBV (0.5 mg/kg IP) or SEQ ID NO. 14 and RBV. RBV was administered in vivo either at day 0 or day 5 and CpG was administered at day O, Samples were isolated at Day 6 from the inguinal lymph node and maintained in medium on anti-CD3 coated plated in the presence of 1-16 μM RBV. On Day 8 an ELISA assay was performed to detect IFN-gamma.

For the next series, the system named is C26 SC mouse model. In words: C26 SC mouse cancer model, survival. The series is classed as in vivo. As to conditions: 100 micrograms ODN intra/peri tumor at days 7, 14, 21; 0.5 mg/kg RBV IP on same days; as of days 30-40; FIG. 8. The procedure:
C26 SC mouse model was treated with SEQ ID NO. 14 and RBV (100 micrograms ODN intra/peri tumor at days 7, 14, 21 and 0.5 mg/kg RBV IP on same days).

Series [2] deals with bone marrow (BM) derived dendritic cells (DCs). In words: Cytokine production of bone marrow derived dendritic cells treated with SEQ ID NO. 14 and/or RBV. The series is classed as cell-based. On the procedure:
Similar experiments were performed using bone marrow (BM) derived dendritic cells (DCs). BM-derived DC maintained in GM-CSF were treated with SEQ ID NO. 14, RBV (1 μM, 5 μM, 10 μM, 100 μM, or 120 μM) or with SEQ ID NO. 14 and RBV. At 4, 24 and 72 hours samples were tested for cytokine, IL-10 (FIG. 6), IL-12p40 (FIG. 7A), IL-12p70 (FIG. 7B) and TNF (data not shown). No effects of RBV alone at 120 μM were observed. SEQ ID NO. 14 induced IL-12, IL-10 and TNF. RBV decreased IL-10 and TNF but increased IL-12 (at 72 h only). RBV decreased SEQ ID NO. […].

Series [3] relates to CD3-mediated IFN-γ production. In words: Ex vivo anti-CD3 stimulation of lymph node cells in the presence of RBV, IFN-gamma ELISA. The series is classed as cell-based, Mice. On the procedure: as §4, §5
The ex vivo effect of RBV on CD3-mediated IFN-γ production independently of prior ODN/RBV treatment was examined. Similar to the data described above, low concentrations of RBV in vitro increased IFN-γ levels independently of previous in vivo treatments (FIG. 5A).

Series [4] has as its system Human PBMC. Kind of series: Effect of Ribavirin on CpG ODN-induced cytokines in human PBMC co-culture. The series is classed as cell-based. As to conditions: for IC50: Homo sapiens, PBMC, calculated IC50 upon addition of Ribavirin to cultures containing 1 μM SEQ ID NO: 13. The procedure: as §1, §2, §3
The observations were particularly noted at lose doses of Ribavirin.

Where [5] appears, read: SEQ ID NO. 14 alone, BM-derived DC in GM-CSF.
[6] abbreviates: human PBMC stimulated with CpG ODN (SEQ ID NO:15 as printed), increasing doses of Ribavirin.

Like-named read-outs stand apart in the source and are kept apart here.

The IC50 is the concentration that inhibits the measured activity by half.

“iIM*rU*rU*rG*rU*rG*rU (5' isatoribine via 5'-5' linkage, phosphorothioate, as printed in the source, key not given here) [SEQ ID NO:6, ORN with Immunosine (Isatoribine) (with a 5′-5′ linkage) at the 5′ end]”: the “IFN-alpha cytokine induction, 8-modified nucleotide at the ORN 5′ end” value (“IFN-alpha cytokine induction … at the ORN 5′ end” below) with Human PBMC [1] is given as “increased cytokine induction”.

Consider “O*rU*rU*rG*rU*rG*rU (8-oxo-dG at 5' end, phosphorothioate linkages, as printed in the source, key not given here) [SEQ ID NO:5, ORN with a single 8-Oxo-rG/Dg at the 5′ end]”, for which, in the series on Human PBMC [1], the “IFN-alpha cytokine induction … at the ORN 5′ end” value is given as “increased cytokine induction”.

Take “rO*rU*rU*rG*rU*rG*rU (8-oxo-rG, phosphorothioate linkages, as printed in the source, key not given here) [SEQ ID NO:3, ORN with a single 8-Oxo-rG at the 5′ position]”: the “IFN-alpha cytokine induction, effect of the position of 8-Oxo-rG” value with Human PBMC [1] is “increased cytokine induction”.

Consider “TCCATGACGTTCCTGATGC (chemistry not given here) [SEQ ID NO. 14, CpG ODN]”, for which the “T cell IFN-γ production ex-vivo after in vivo treatment with a single agent” value in the series with T cell IFN-γ production is listed as “increased”. Further, the survival result with C26 SC mouse model is “prolonged survival”. Moreover, in series [2] (setting [5]), the IL-10 induction result is listed as “induced”, the IL-12 induction entry was “induced” and the TNF induction entry was “induced”.

For `NC(=O)c1ncn([C@@H]2O[C@H](CO)[C@@H](O)[C@H]2O)n1` [Ribavirin], the “effect of RBV on IFN-γ production when CpG ODN was also injected” value in the series with T cell IFN-γ production (RBV 0.5 mg/kg IP with SEQ ID NO. 14 100 micrograms SC, FIG. 4B) is listed as “greatly enhanced”. Besides, in the series on T cell IFN-γ production, the “T cell IFN-γ production ex-vivo after in vivo treatment with a single agent” value is reported as “small effect”. Also, the “ex vivo IFN-γ CD3-induced production after in vivo RBV” value in the series on T cell IFN-γ production (initial experiment, 10 mg/kg intraperitoneal (IP) RBV) is “no effect in vivo of RBV and possibly even a slight decrease”. Besides, the “IFN-γ production, ex vivo anti-CD3 stimulation in the presence of RBV” value in series [3] (initial experiment, only at rather low concentrations of RBV (1-5 μM)) is given as “increase IFN-γ production”. Moreover, in series [3] (low concentrations of RBV in vitro, independently of previous in vivo treatments, FIG. 5A), the “CD3-mediated IFN-γ levels, RBV in vitro” value is given as “increased”. Besides, the results for the IC50 in the series with Human PBMC [4] (read-out: IC50 IFN-alpha), in the series with Human PBMC [4] (read-out: IC50 IL-6) and in the series with Human PBMC [4] (read-out: IC50 IL-10) were 1000 µM, 320 µM and 58 µM, respectively. The “effect on the CpG-induced IL10 induction” value with Human PBMC [4] (setting [6]) is “suppressive effect”. For the same molecule, the “suppressive effect with respect to IFN-alpha” value with Human PBMC [4] (setting [6]) is listed as “not observed”. The “effect of RBV on SEQ ID NO. 14-induced IL-12p40” value in series [2] (BM-derived DC, FIG. 7A) is “decreased”. In series [2] (BM-derived DC, FIG. 7B), the “effect of RBV on SEQ ID NO. 14-induced IL-12p70” value is recorded as “increased IL-12p70 (slightly)”. The “effect of RBV on SEQ ID NO. 14-induced IL-10” value in series [2] (BM-derived DC, RBV 1-120 μM with SEQ ID NO. 14, FIG. 6) is recorded as “decreased”. For the same molecule, the “effect of RBV on IL-12” value in series [2] (BM-derived DC, RBV with SEQ ID NO. 14, at 72 h only) is listed as “increased”. Also, the “effect of RBV on TNF” value in series [2] (BM-derived DC, RBV with SEQ ID NO. 14, data not shown) is given as “decreased”. Also, the “cytokines (IL-10, IL-12p40, IL-12p70, TNF), RBV alone” value in series [2] (RBV alone at 120 μM, 4, 24 and 72 hours) is reported as “No effects”.

For the molecule rO*rU*rU*rO*rU*rO*rU [SEQ ID NO:1], in the series with Human PBMC [1], the “IFN-alpha cytokine induction, effect of the position of 8-Oxo-rG” value is given as “increased cytokine induction” and the “IFN-alpha cytokine induction … at the ORN 5′ end” value is reported as “increased cytokine induction”.
